Results taken from patent US9586958B2, “Prodrug derivatives of substituted triazolopyridines” (BAYER PHARMA AKTIENGESELLSCHAFT, priority 2013, dated 2017).
Like-named read-outs stand apart in the source and are kept apart here.

What was measured:
[1] = Metabolic stability in vitro, rat liver microsomes (calculation of Fmax); type: in vitro ADME
Procedure: (§1) The metabolic stability of test compounds in vitro was determined by incubating them at 1 μM with a suspension liver microsomes in 100 mM phosphate buffer, pH7.4 (NaH2PO4×H2O+Na2HPO4×2H2O) at a protein concentration of 0.5 mg/mL and at 37° C. The reaction was activated by adding a co-factor mix containing 1.2 mg NADP, 3 IU glucose-6-phosphate dehydrogenase, 14.6 mg glucose-6-phosphate and 4.9 mg MgCl2 in phosphate buffer, pH 7.4. Organic solvent in the incubations was limited to <0.2% dimethylsulfoxide (DMSO) and <1% methanol. During incubation, the microsomal suspensions were continuously shaken and aliquots were taken at 2, 8, 16, 30, 45 and 60 min, to which equal volumes of cold methanol were immediately added. Samples were frozen at −20° C. over night, subsequently centrifuged for 15 minutes at 3000 rpm and the supernatant was analyzed with an Agilent 1200 HPLC-system with LCMS/MS detection.
(§2) The half-life of a test compound was determined from the concentration-time plot. From the half-life the intrinsic clearances were calculated. Together with the additional parameters liver blood flow, specific liver weight and microsomal protein content the hepatic in vivo blood clearance (CL) and the maximal oral bioavailability (Fmax) were calculated for the different species. The following parameter values were used: Liver blood flow—1.3 L/h/kg (human), 2.1 L/h/kg (dog), 4.2 L/h/kg (rat); specific liver weight—21 g/kg (human), 39 g/kg (dog), 32 g/kg (rat); microsomal protein content—40 mg/g.
(§3) With the described assay only phase-I metabolism of microsomes is reflected, e.g. typically oxidoreductive reactions by cytochrome P450 enzymes and flavin mono-oxygenases (FMO) and hydrolytic reactions by esterases (esters and amides).

[2] = Metabolic stability in vitro, human liver microsomes (calculation of Fmax); type: in vitro ADME; details: for Human liver microsomes; Fmax [%]: 1 μM; for calculated maximal oral bioavailability (Fmax) at 1 μM: pH 7.4, determined by means of human liver microsomes, read-out: maximum oral bioavailability (Fmax) in human
Procedure: as §1, §2, §3

[3] = Metabolic stability in vitro, dog liver microsomes (calculation of Fmax); type: in vitro ADME
Procedure: as §1, §2, §3

[4] = system: HeLa human cervical tumor cells; assay: Proliferation assay, HeLa cells (crystal violet); type: cell-based
Procedure: (§4) Cultivated tumor cells (MCF7, hormone dependent human mammary carcinoma cells, ATCC HTB22; NCI-H460, human non-small cell lung carcinoma cells, ATCC HTB-177; DU 145, hormone-independent human prostate carcinoma cells, ATCC HTB-81; HeLa-MaTu, human cervical carcinoma cells, EPO-GmbH, Berlin; HeLa-MaTu-ADR, multidrug-resistant human cervical carcinoma cells, EPO-GmbH, Berlin; HeLa human cervical tumor cells, ATCC CCL-2; B16F10 mouse melanoma cells, ATCC CRL-6475) were plated at a density of 5000 cells/well (MCF7, DU145, HeLa-MaTu-ADR), 3000 cells/well (NCI-H460, HeLa-MaTu, HeLa), or 1000 cells/well (B16F10) in a 96-well multititer plate in 200 μl of their respective growth medium supplemented 10% fetal calf serum. After 24 hours, the cells of one plate (zero-point plate) were stained with crystal violet (see below), while the medium of the other plates was replaced by fresh culture medium (200 μl), to which the test substances were added in various concentrations (0 μM, as well as in the range of 0.01-30 μM; the final concentration of the solvent dimethyl sulfoxide was 0.5%). The cells were incubated for 4 days in the presence of test substances. Cell proliferation was determined by staining the cells with crystal violet: the cells were fixed by adding 20 μl/measuring point of an 11% glutaric aldehyde solution for 15 minutes at room temperature. After three washing cycles of the fixed cells with water, the plates were dried at room temperature. The cells were stained by adding 100 μl/measuring point of a 0.1% crystal violet solution (pH 3.0). After three washing cycles of the stained cells with water, the plates were dried at room temperature. The dye was dissolved by adding 100 μl/measuring point of a 10% acetic acid solution. The extinction was determined by photometry at a wavelength of 595 nm. The change of cell number, in percent, was calculated by normalization of the measured values to the extinction values of the zero-point plate (=0%) and the extinction of the untreated (0 μm) cells (=100%). The IC50 values were determined by means of a 4 parameter fit.

[5] = system: HeLa-MaTu-ADR, multidrug-resistant human cervical carcinoma cells; assay: Proliferation assay, HeLa-MaTu-ADR cells (crystal violet); type: cell-based; details: read-out: IC50 determined in a HeLa-MaTu-ADR cell proliferation assay
Procedure: as §4

[6] = Solubility of compound A1 at 25° C. in different solvents; type: physicochemical
human kinase Mps-1 = biological target: T1, human kinase Mps-1 (Homo sapiens, UniProt P33981); assay: Mps-1 kinase assay (TR-FRET) with 10 μM ATP; type: biochemical; details: Mps-1 Inhibition, IC50 (Assay with 10 μM ATP), comparison table with comparative examples
T1 construct: N-terminally GST-tagged human full length recombinant Mps-1 kinase; GST (N); purchased Invitrogen, Karslruhe, Germany PV4071
T1 sequence (P33981 1-857): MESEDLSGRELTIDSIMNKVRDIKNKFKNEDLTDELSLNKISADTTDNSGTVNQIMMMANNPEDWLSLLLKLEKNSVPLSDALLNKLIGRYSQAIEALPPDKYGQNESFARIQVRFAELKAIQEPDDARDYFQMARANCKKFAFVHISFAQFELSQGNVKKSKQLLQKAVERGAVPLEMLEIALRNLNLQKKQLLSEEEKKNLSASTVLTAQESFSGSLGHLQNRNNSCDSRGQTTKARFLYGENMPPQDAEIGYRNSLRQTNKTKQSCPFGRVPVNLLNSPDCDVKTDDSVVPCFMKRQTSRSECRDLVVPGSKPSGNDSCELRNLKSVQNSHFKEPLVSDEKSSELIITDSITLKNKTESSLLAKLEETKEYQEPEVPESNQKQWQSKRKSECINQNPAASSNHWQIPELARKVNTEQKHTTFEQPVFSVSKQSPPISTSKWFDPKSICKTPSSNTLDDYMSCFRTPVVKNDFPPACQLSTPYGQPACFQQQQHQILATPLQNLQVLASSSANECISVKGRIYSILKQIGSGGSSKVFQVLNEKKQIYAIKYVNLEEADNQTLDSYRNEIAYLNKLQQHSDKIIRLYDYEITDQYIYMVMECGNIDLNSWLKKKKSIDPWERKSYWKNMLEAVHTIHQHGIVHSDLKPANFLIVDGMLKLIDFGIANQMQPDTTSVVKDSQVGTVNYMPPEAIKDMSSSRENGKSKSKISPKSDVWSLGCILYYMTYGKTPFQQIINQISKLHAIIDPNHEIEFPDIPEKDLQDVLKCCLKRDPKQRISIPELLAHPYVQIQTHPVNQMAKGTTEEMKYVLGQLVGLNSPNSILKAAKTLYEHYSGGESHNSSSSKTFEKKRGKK

[7] = comparison table with comparative examples
[8] = HeLa, comparison table with comparative examples, read-out: Inhibition of cell proli-feration, cell line: HeLa, IC50

COc1cc(S(C)(=O)=O)ccc1Nc1nc2ccc(-c3ccc(NC(=O)[C@H](C)c4ccc(F)cc4)cc3)cn2n1 [Compound A1, (2R)-2-(4-fluorophenyl)-N-[4-(2-{[2-methoxy-4-(methylsulfonyl)phenyl]-amino}[1,2,4]triazolo[1,5-α]pyridin-6-yl)phenyl]propanamide]
Rat liver microsomes; Fmax [%] [1, 7]: 92% | Rat liver microsomes; Fmax [%] ([1]; rat liver microsomes, 1 μM): 92% | Human liver microsomes; Fmax [%] [2]: 92% | calculated maximal oral bioavailability (Fmax) at 1 μM [2]: > 60% | Dog liver microsomes; Fmax [%] [3, 7]: 64% | Dog liver microsomes; Fmax [%] ([3]; dog liver microsomes, 1 μM): 64% | IC50 ([4]; 96 h, HeLa cells, 4 days, read-out: Inhibition of cell proliferation, cell Line: HeLa IC50): < 400 nM | IC50 [4, 8]: < 400 nM | IC50 ([4]; HeLa, read-out: IC50 in a HeLa cell proliferation assay): < 400 nM | IC50 [5]: < 10 µM | dissolved amount in mg/100 mL solution ([6]; 0.1M HCl in water): <0.1 mg/100 mL | dissolved amount in mg/100 mL solution ([6]; aqueous solution, acetate buffer pH 4.5): <0.1 mg/100 mL | dissolved amount in mg/100 mL solution ([6]; aqueous solution, phopshate buffer pH 7): <0.1 mg/100 mL | dissolved amount in mg/100 mL solution ([6]; aqueous solution, phopshate buffer pH 8): <0.1 mg/100 mL | dissolved amount in mg/100 mL solution ([6]; solvent acetone): 1518.3 mg/100 mL | dissolved amount in mg/100 mL solution ([6]; solvent acetonitrile): 350.2 mg/100 mL | dissolved amount in mg/100 mL solution ([6]; solvent ethanol): 45.7 mg/100 mL | dissolved amount in mg/100 mL solution ([6]; solvent water): <0.1 mg/100 mL

COc1cc(C(=O)N2CC(F)C2)ccc1Nc1nc2ccc(-c3ccc(NC(=O)[C@H](C)c4ccc(F)cc4)cc3)cn2n1 [Compound A3, (2R)-N-{4-[2-({4-[(3-fluoroazetidin-1-yl)carbonyl]-2-methoxyphenyl}amino)-[1,2,4]triazolo[1,5-α]pyridin-6-yl]phenyl}-2-(4-fluorophenyl)propanamide]
Rat liver microsomes; Fmax [%] [1, 7]: 83% | Rat liver microsomes; Fmax [%] ([1]; rat liver microsomes, 1 μM): 83% | Human liver microsomes; Fmax [%] [2]: >95% | calculated maximal oral bioavailability (Fmax) at 1 μM [2]: > 60% | Dog liver microsomes; Fmax [%] [3, 7]: 86% | Dog liver microsomes; Fmax [%] ([3]; dog liver microsomes, 1 μM): 86% | IC50 [5]: < 10 µM

N#Cc1c(F)cccc1Nc1nc2ccc(-c3ccc(NC(=O)Cc4ccc(F)cc4)cc3)cn2n1 [reference compound]
Dog liver microsomes; Fmax [%] [3, 7]: 15%

COc1ccccc1Nc1nc2ccc(-c3ccc(NC(=O)Cc4ccccc4)cc3)cn2n1 [reference compound]
Rat liver microsomes; Fmax [%] [1, 7]: 40%

N#Cc1ccccc1Nc1nc2ccc(-c3ccc(NC(=O)Cc4ccc(F)cc4)cc3)cn2n1 [reference compound]
Rat liver microsomes; Fmax [%] [1, 7]: 40%

COC(C(=O)Nc1ccc(-c2ccc3nc(Nc4ccccc4C#N)nn3c2)cc1)c1ccccc1 (centres unmarked) [reference compound]
Rat liver microsomes; Fmax [%] [1, 7]: 19%

N#Cc1ccccc1Nc1nc2ccc(-c3ccc(NC(=O)C(F)(F)c4ccccc4)cc3)cn2n1 [reference compound]
Rat liver microsomes; Fmax [%] [1, 7]: 27%

N#Cc1ccccc1Nc1nc2ccc(-c3ccc(NC(=O)C(F)c4ccccc4)cc3)cn2n1 (centres unmarked) [reference compound]
Rat liver microsomes; Fmax [%] [1, 7]: 26%

COc1cc(C(=O)N2CCOCC2)ccc1Nc1nc2ccc(-c3ccc(NC(=O)Cc4ccc(F)cc4)cc3)cn2n1 [reference compound]
Rat liver microsomes; Fmax [%] [1, 7]: 48%

CCOc1cc(S(C)(=O)=O)ccc1Nc1nc2ccc(-c3ccc(C(=O)NCc4ccc(F)cc4)c(C)c3)cn2n1 [reference compound]
Dog liver microsomes; Fmax [%] [3, 7]: 12%

COc1cc(C(=O)NCC(F)(F)F)ccc1Nc1nc2ccc(-c3ccc(NC(=O)Cc4ccc(F)cc4)cc3)cn2n1 [reference compound]
Dog liver microsomes; Fmax [%] [3, 7]: 40%

COc1cc(N2CCOC2=O)ccc1Nc1nc2ccc(-c3ccc(NC(=O)Cc4ccc(F)cc4)cc3)cn2n1 [reference compound]
Dog liver microsomes; Fmax [%] [3, 7]: 17%

COc1cc(S(C)(=O)=O)ccc1Nc1nc2ccc(-c3ccc(NC(=O)Cc4ccc(F)cc4)cc3)cn2n1 [reference compound]
Dog liver microsomes; Fmax [%] [3, 7]: 10%

CS(=O)(=O)c1ccc(Nc2nc3ccc(-c4ccc(NC(=O)Cc5ccc(F)cc5)cc4)cn3n2)c(OCC(F)(F)F)c1 [reference compound]
Dog liver microsomes; Fmax [%] [3, 7]: 25%

N#Cc1ccccc1Nc1nc2cnc(-c3ccc(NC(=O)Cc4ccc(F)cc4)cc3)cn2n1 [reference compound]
IC50 [4, 8]: 1500 nM

N#Cc1ccccc1Nc1nc2ccc(-c3ccc(NC(=O)C4(c5ccccc5)CC4)cc3)cn2n1 [reference compound]
IC50 (human kinase Mps-1): 11 nM | IC50 [4, 8]: 1400 nM

NC(C(=O)Nc1ccc(-c2ccc3nc(Nc4ccccc4C(F)(F)F)nn3c2)cc1)c1ccccc1 (centres unmarked) [reference compound]
IC50 (human kinase Mps-1): 13 nM
